The values below come from paper PMC3322975 (The Journal of Biological Chemistry, 2012).

The assay concerns the target Kv7.2/7.3 M-channel (Homo sapiens, UniProt O43525+O43526). Description: single-channel recording, excised inside-out patch. In kind it is cell-based.

Kv7.2/7.3 M-channel, sequence (O43526 whole entry): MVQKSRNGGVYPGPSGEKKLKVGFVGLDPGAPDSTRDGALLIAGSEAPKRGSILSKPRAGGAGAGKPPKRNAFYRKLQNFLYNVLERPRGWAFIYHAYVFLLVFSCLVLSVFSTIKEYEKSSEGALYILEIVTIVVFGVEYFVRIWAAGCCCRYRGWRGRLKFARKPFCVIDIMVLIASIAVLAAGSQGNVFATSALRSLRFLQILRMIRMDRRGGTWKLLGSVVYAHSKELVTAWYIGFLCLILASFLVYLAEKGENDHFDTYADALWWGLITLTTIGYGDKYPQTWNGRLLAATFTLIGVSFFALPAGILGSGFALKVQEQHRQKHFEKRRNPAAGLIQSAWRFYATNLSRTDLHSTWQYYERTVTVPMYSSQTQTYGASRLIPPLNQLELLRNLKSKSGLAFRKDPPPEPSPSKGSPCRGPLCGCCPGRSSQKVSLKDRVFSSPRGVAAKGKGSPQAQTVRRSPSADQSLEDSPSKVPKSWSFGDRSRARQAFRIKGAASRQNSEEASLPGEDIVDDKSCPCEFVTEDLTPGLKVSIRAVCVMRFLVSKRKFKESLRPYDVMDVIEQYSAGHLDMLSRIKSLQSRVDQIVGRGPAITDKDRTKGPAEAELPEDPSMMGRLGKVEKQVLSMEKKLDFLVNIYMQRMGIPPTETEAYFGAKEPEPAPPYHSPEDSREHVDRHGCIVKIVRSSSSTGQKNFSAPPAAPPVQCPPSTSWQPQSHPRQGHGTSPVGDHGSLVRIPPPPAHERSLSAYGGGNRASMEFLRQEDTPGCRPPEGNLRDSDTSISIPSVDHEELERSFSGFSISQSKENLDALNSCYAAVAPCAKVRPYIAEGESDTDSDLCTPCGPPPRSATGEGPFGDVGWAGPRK
Kv7.2/7.3 M-channel, sequence (O43525 whole entry): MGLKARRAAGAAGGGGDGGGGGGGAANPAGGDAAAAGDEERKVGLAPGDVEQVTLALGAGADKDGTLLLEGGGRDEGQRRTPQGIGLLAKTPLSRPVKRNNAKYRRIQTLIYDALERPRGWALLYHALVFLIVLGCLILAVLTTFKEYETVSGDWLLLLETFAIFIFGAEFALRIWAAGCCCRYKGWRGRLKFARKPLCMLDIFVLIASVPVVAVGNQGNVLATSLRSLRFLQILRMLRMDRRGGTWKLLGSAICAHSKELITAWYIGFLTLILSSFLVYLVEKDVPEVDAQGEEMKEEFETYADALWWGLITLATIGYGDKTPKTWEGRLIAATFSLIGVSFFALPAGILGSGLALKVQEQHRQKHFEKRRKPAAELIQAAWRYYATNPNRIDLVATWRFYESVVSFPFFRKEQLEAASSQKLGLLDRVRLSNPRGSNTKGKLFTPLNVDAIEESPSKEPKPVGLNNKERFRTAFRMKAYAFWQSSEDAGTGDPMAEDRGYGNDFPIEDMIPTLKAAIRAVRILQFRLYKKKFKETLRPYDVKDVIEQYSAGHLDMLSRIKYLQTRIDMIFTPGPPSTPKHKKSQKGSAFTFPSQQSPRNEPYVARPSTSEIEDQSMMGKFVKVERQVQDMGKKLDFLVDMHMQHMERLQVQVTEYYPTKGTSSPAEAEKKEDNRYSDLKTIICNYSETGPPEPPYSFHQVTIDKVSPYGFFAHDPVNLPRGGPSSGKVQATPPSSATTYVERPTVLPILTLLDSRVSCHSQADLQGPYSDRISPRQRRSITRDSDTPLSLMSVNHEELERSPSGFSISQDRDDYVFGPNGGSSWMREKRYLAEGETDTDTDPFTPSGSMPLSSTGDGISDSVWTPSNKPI

One may read the EC50 as the midpoint of the concentration-response curve. The low end stands for a more potent agent, the high end for a less potent agent. `CCCCCCCCc1ccc(CCC(N)(CO)COP(=O)(O)O)cc1` (stereo not drawn) [FTY720-P] returned a half-maximal effective concentration (EC50) of 500 ± 1 nM.

In turn, `CCCCCCCC/C=C\CCCCCCCC(=O)OC[C@@H](O)COP(=O)(O)O` [LPA] showed an EC50 of 1500 ± 400 nM.

For the molecule `CCCCCCCCCCCCC/C=C/[C@@H](O)[C@@H](N)COP(=O)(O)O` [S-1-P], a half-maximal effect (EC50) was put at 3200 ± 600 nM.

In the case of `CCCCCCCC(=O)OC[C@H](COP(=O)(O)O[C@H]1[C@H](O)[C@@H](OP(=O)(O)O)[C@H](OP(=O)(O)O)[C@@H](OP(=O)(O)O)[C@H]1O)OC(=O)CCCCCCC` [diC8PI(3,4,5)P3], the concentration giving a half-maximal response (EC50) came out at 1100 ± 200 nM.

Regarding `CCCCCCCC(=O)OC[C@H](COP(=O)(O)O[C@H]1[C@H](O)[C@@H](O)[C@H](OP(=O)(O)O)[C@@H](O)[C@H]1O)OC(=O)CCCCCCC` [diC8PI(4)P], the EC50 is 1700 ± 300 nM.

The molecule `CCCCCCCC(=O)OC[C@H](COP(=O)(O)O[C@@H]1[C@H](O)[C@H](O)[C@@H](OP(=O)(O)O)[C@H](OP(=O)(O)O)[C@H]1O)OC(=O)CCCCCCC` [diC8PI(4,5)P2] returned an EC50 of 1100 ± 100 nM.
